Test results published in patent EP4631938A1, “NITROGEN-CONTAINING HETEROCYCLE WITH SEROTONIN RECEPTOR-BINDING ACTIVITY AND CARBOCYCLIC DERIVATIVE” (Shionogi & Co., Ltd, priority 2022, dated 2024).

Legend:
[1] = molecular target: T1, human recombinant 5-HT2C receptor (Homo sapiens, UniProt P28335); assay: Test Example 2: 5-HT2C receptor binding inhibition test ([3H]-Mesulergine; non-specific ligand Serotonin HCl); details: human serotonin 5-HT2C receptor binding activity
T1 construct: expressed in transfected cells; host or cells: Jump-In HEK cells (membrane preparation)
T1 sequence (P28335 33-458): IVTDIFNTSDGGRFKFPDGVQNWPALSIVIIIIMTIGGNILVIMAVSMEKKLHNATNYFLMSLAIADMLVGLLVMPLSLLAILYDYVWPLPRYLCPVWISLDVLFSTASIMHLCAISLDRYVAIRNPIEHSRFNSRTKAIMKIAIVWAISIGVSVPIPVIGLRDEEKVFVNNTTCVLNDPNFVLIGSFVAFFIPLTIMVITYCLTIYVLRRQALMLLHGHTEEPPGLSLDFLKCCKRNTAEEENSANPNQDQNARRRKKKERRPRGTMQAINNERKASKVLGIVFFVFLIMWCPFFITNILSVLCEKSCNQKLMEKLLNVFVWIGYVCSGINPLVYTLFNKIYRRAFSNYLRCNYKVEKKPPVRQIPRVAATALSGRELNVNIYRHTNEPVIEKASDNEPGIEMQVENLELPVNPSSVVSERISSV
Method in brief: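 Filtration binding to membranes bearing human 5-HT2C with [3H]-mesulergine, 2 h at 37°C; non-specific binding defined with 500 µmol/L serotonin HCl, total binding with vehicle. Inhibition rate computed from cpm; Ki derived from dose-response curve, with ligand Kd from Scatchard analysis of saturation binding.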

[2] = molecular target: T2, human recombinant 5-HT2A receptor (Homo sapiens, UniProt P28223); assay: Test Example 1-2: 5-HT2A receptor binding inhibition test ([3H]-Ketanserin; non-specific ligand Ketanserin); details: [3H]-Ketanserin; non-specific binding with 500 µmol/L Ketanserin; room temperature (25°C), 1.5 hours; read-out: h 5-HT2A Ki
T2 construct: expressed in transfected cells; host or cells: Jump-In HEK cells (membrane preparation)
T2 sequence (P28223 whole entry): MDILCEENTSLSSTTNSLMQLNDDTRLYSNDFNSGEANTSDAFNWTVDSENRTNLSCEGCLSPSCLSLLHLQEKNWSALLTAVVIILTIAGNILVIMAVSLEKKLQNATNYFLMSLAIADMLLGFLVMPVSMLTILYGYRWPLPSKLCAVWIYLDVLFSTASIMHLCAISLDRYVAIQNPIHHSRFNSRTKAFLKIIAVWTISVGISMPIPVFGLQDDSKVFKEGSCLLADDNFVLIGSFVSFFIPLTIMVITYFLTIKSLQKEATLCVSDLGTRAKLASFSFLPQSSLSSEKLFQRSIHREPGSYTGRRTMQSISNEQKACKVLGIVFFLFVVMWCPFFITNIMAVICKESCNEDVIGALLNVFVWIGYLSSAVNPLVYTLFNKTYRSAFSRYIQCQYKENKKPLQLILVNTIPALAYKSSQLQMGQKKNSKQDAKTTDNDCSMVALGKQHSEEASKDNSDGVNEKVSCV
Method in brief: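 Membranes expressing the receptor were incubated with [3H]-ketanserin and compound for 1.5 h at 25 °C, then filtered onto plates presoaked in 50 mmol/L Tris-HCl pH 7.4 and scintillation-counted. Non-specific binding was defined with 500 µmol/L unlabeled ketanserin. Ki was taken from dose-response curves, with Kd set for each membrane lot by Scatchard analysis.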

| Ki [1] [nM] | Ki [2] [nM] | Compound |
| --- | --- | --- |
| 12.2 | 3.34 | Cc1nc(C)c(-c2nc(Nc3ccc(-c4ccc(C(F)(F)F)nc4)cn3)c(F)cc2O[C@H](C)CO)c(C)n1 [Compound I-364] |
| 1.98 | 4.65 | COCc1nc(C)c(-c2nc(Nc3ccc(-c4ccc(C(F)(F)F)nc4)cn3)c(F)cc2OCCO)c(C)n1 [Compound I-365] |
| 1.8 | 0.955 | Cc1nc(COC2CC2)nc(C)c1-c1cc(Nc2ncc(C(F)(F)F)cc2Cl)ncc1OCCO [Compound I-374] |
| 1.57 | 1.27 | Cc1nc(COCC(F)F)nc(C)c1-c1cc(Nc2ncc(C(F)(F)F)cc2Cl)ncc1OCCO [Compound I-375] |
| 0.791 | 1.13 | Cc1cnn(Cc2nc(C)c(-c3cc(Nc4ncc(C(F)(F)F)cc4Cl)ncc3OCCO)c(C)n2)c1 [Compound I-379] |
| 7.28 | 0.527 | COc1nc(C)nc(OC)c1-c1cc(Nc2ncc(C(F)(F)F)cc2Cl)ncc1OCCO [Compound I-380] |
| 4.59 | 2.57 | Cc1nc(C)c(-c2nc(Nc3ccc(OC(F)(F)F)c(C)n3)c(F)cc2OCCO)c(C)n1 [Compound I-383] |
| 4.58 | 2.87 | Cc1nc(C)c(-c2nc(Nc3ccc(C(F)(F)F)c(C)n3)c(F)cc2OCCO)c(C)n1 [Compound I-384] |
| 5.08 | 0.226 | Cn1ncc(Cl)c1-c1nc(Nc2ccc(C(F)(F)F)cn2)c(F)cc1OCCO [Compound I-385] |
| 5.22 | 0.244 | Cn1ncc(Cl)c1-c1nc(Nc2ccc(OC(F)(F)F)cn2)c(F)cc1OCCO [Compound I-386] |
| 3.82 | 0.318 | Cn1ncc(Br)c1-c1nc(Nc2ccc(C(F)(F)F)cn2)c(Cl)cc1OCCO [Compound I-387] |
| 7.66 | 0.366 | Cn1ncc(Br)c1-c1nc(Nc2nc3ccc(F)cc3s2)c(F)cc1OCCO [Compound I-388] |
| 2.41 | 1.2 | Cc1nc(C)c(-c2cc(Nc3ncc(C(F)(F)F)cc3C)ncc2OCCO)c(C)n1 [Compound I-389] |
| 3.91 | 1.08 | Cc1nc(C)c(-c2cc(Nc3ncc(C(F)(F)F)cc3Cl)ncc2OCCO)c(C)n1 [Compound I-390] |
| 12.3 | 2.88 | Cc1nc(C)c(-c2cc(Nc3ncc(OC(F)(F)F)cc3F)ncc2O[C@H](C)CO)c(C)n1 [Compound I-392] |
| 78.9 | 17.6 | COCc1nc(C)c(-c2nc(Nc3cc(-c4ccccc4)no3)c(F)cc2OCCO)c(C)n1 [Compound I-393] |
| 2.16 | 1.34 | COCc1nc(C)c(-c2nc(Nc3ccc(C(F)(F)F)c(OC)n3)c(F)cc2OCCO)c(C)n1 [Compound I-394] |
| 1.84 | 3.37 | COCc1nc(C)c(-c2nc(Nc3ccc(OC(F)(F)F)c(C)n3)c(F)cc2OCCO)c(C)n1 [Compound I-395] |
| 17.2 | 9.96 | COCc1nc(C)c(-c2nc(Nc3ccc(C(F)(F)F)c(C#N)n3)c(F)cc2OCCO)c(C)n1 [Compound I-396] |

The remaining lines, values behind:

| Compound | Ki [1] [nM] | Ki [2] [nM] |
| --- | --- | --- |
| OCCOc1cnc(Nc2ncc(C(F)(F)F)cc2F)cc1-c1cccnc1C(F)F [Compound I-366] | 59.1 | 2.19 |
| CCc1ncccc1-c1cc(Nc2ncc(C(F)(F)F)cc2F)ncc1OCCO [Compound I-367] | 64.9 | 1.97 |
| O=C1NCc2c1cncc2-c1cc(Nc2ncc(C(F)(F)F)cc2F)ncc1OCCO [Compound I-368] | 51.2 | 2.13 |
| COC(=O)c1ccc(C)c(-c2cc(Nc3ncc(C(F)(F)F)cc3F)ncc2OCCO)c1 [Compound I-369] | 58.2 | 1.72 |
| COC(=O)c1ccc(-c2cc(Nc3ncc(C(F)(F)F)cc3F)ncc2OCCO)c(C)c1 [Compound I-370] | 86.8 | 1.03 |
| CNC(=O)c1cnc(C)c(-c2cc(Nc3ncc(C(F)(F)F)cc3F)ncc2OCCO)c1 [Compound I-371] | 61.5 | 2.37 |
| Cc1cc(CO)ccc1-c1cc(Nc2ncc(C(F)(F)F)cc2F)ncc1OCCO [Compound I-372] | 9.14 | 0.847 |
| Cc1ccc(CO)cc1-c1cc(Nc2ncc(C(F)(F)F)cc2F)ncc1OCCO [Compound I-373] | 64.7 | 1.21 |
| Cc1nc(CO[C@H]2CCOC2)nc(C)c1-c1cc(Nc2ncc(C(F)(F)F)cc2Cl)ncc1OCCO [Compound I-377] | 4.66 | 2.9 |
| Cc1nc(COC2CCOCC2)nc(C)c1-c1cc(Nc2ncc(C(F)(F)F)cc2Cl)ncc1OCCO [Compound I-381] | 3.58 | 2.66 |
| CNC(=O)c1ccc(F)c(-c2cc(Nc3ncc(C(F)(F)F)cc3F)ncc2OCCO)c1 [Compound I-391] | 19 | 0.357 |
| Cn1ncc(Br)c1-c1cc(Nc2ncc(C(F)(F)F)cn2)c(Cl)cc1OCCO [Compound I-397] | 1.8 | 0.413 |
| Cn1ncc(Br)c1-c1cc(Nc2ncc(Cl)cn2)c(Cl)cc1OCCO [Compound I-398] | 5.26 | 0.576 |
| Cn1ncc(Br)c1-c1cc(Nc2ncc(C(F)(F)F)cc2F)c(Cl)cc1OCCO [Compound I-399] | 0.86 | 0.347 |
| Cn1ncc(Br)c1-c1cc(Nc2ccc(C(F)(F)F)cn2)c(Cl)cc1OCCO [Compound I-400] | 1.38 | 0.338 |
| Cn1ncc(Br)c1-c1cc(Nc2ccc(Cl)cn2)c(Cl)cc1OCCO [Compound I-401] | 0.849 | 0.211 |
| Cn1ncc(Br)c1-c1cc(Nc2ccc(C(F)(F)F)nn2)c(F)cc1OCCO [Compound I-402] | 11 | 0.533 |
| Cn1ncc(Br)c1-c1cc(Nc2ccc(C(F)F)nn2)c(F)cc1OCCO [Compound I-403] | 29.9 | 0.565 |
| Cn1ncc(Br)c1-c1cc(Nc2cnc(C(F)(F)F)cn2)c(F)cc1OCCO [Compound I-404] | 5.79 | 0.362 |
| Cn1ncc(Br)c1-c1cc(Nc2nc3ccc(F)cc3s2)c(F)cc1OCCO [Compound I-405] | 0.293 | 0.274 |
| Cn1ncc(Br)c1-c1cc(Nc2nc3ccc(F)cc3[nH]2)c(F)cc1OCCO [Compound I-406] | 2.48 | 0.463 |
| Cn1ncc(Br)c1-c1cc(Nc2cc(C(F)(F)F)ccn2)c(F)cc1OCCO [Compound I-407] | 3.64 | 0.225 |
| Cn1ncc(Br)c1-c1cc(Nc2nc3ccc(F)cc3s2)c(Cl)cc1OCCO [Compound I-408] | 1.89 | 0.384 |
| Cn1ncc(Cl)c1-c1cc(Nc2ncc(C(F)(F)F)cc2F)c(Cl)cc1OCCO [Compound I-409] | 2.12 | 0.42 |
| Cn1ncc(Cl)c1-c1cc(Nc2ncc(C(F)(F)F)cn2)c(Cl)cc1OCCO [Compound I-410] | 3.94 | 0.573 |
